The values that follow come from US11214803B2, “Modulators of YAP1 expression” (Ionis Pharmaceuticals, Inc., priority 2019, dated 2022).

Data set [1] relates to Yap1 mRNA. The data set is described as follows: Yap1 mRNA in NCI H292 cells, RNA analysis (Example 32). In kind it is cell-based, human. The note with it: free uptake, approximately 48 hours. Here is the method: Modified oligonucleotides described in the studies above were tested at various doses in mucoepidermoid pulmonary carcinoma cell line […]. A control oligonucleotide 792169 was also tested.
Cultured NCI H292 cells at a density of 5000 cells per well were treated using free uptake with modified oligonucleotides diluted to concentrations described in the tables below. After approximately 48 hours, Yap1 mRNA levels were measured as previously described using the Human Yap1 primer-probe set RTS4814. Yap1 mRNA levels were normalized to actin-beta content, as measured by primer probe set RTS5002. Results are presented in the tables below as percent control of the amount of Yap1 mRNA relative to untreated control cells (% UTC).

Data set [2] concerns BICR-22 cells. In words: Cell proliferation assay in BICR-22 cells, CellTiter-Glo (Example 35). The data set is classed as cell-based, human. The following applies: free uptake, approximately 144 hours. Here is the method:
Modified oligonucleotides described in the studies above were tested at various doses in tongue squamous carcinoma (lymph node metastasis) cell line BICR-22. A control oligonucleotide 792169, described herein above, was also tested.
Cultured BICR-22 cells at a density of 1000 cells/well were treated using free uptake with modified oligonucleotides diluted to concentrations described in the tables below. After approximately 144 hours, cell proliferation was measured using the luminescent cell viability CellTiter-Glo® 2.0 Assay (Promega). Results are presented in the tables below as percent control of the amount of luminescence in samples treated with modified oligonucleotides relative to untreated control cells (% UTC).
For orientation: ATP-based viability assays read luminescence as a measure of living cells.

In data set [3] the test system is SCC-4 cells. The data set is described as follows: Cell proliferation assay in SCC-4 cells, CellTiter-Glo (Example 39). The data set is classed as cell-based, human. The note with it: free uptake, approximately 144 hours. How it is done:
Modified oligonucleotides described in the studies above were tested at various doses in tongue squamous cell carcinoma cell line SCC 4. A control oligonucleotide 792169, described herein above, was also tested.
Cultured SCC-4 cells at a density of 1000 cells/well were treated using free uptake with modified oligonucleotides diluted to concentrations described in the tables below. After approximately 144 hours, cell proliferation was measured using the luminescent cell viability CellTiter-Glo® 2.0 Assay (Promega). Results are presented in the tables below as percent control of the amount of luminescence in samples treated with modified oligonucleotides relative to untreated control cells (% UTC).

Data set [4] relates to Yap1 mRNA. The data set is described as follows: Yap1 mRNA in SCC-15 cells, RNA analysis (Example 41). The following applies: free uptake, approximately 48 hours. The data set is classed as cell-based, human. How it is done:
(§1) Modified oligonucleotides described in the studies above were tested at various doses in tongue squamous cell carcinoma cell line SCC-15. A control oligonucleotide 792169, described herein above, was also tested.
Cultured SCC-15 cells at a density of 5000 cells per well were treated using free uptake with modified oligonucleotides diluted to concentrations described in the tables below. After approximately 48 hours, Yap1 mRNA levels were measured as previously described using the Human Yap1 primer-probe set RTS4814. Yap1 mRNA levels were normalized to actin-beta content, as measured by primer probe set RTS5002. Results are presented in the tables below as percent control of the amount of Yap1 mRNA relative to untreated control cells (% UTC).

The test system of data set [5] is SCC-15 cells. In words: Cell proliferation assay in SCC-15 cells, CellTiter-Glo (Example 41). In kind it is cell-based, human. The note with it: free uptake, approximately 144 hours. How it is done:
as §1
Cultured SCC-15 cells at a density of 1000 cells/well were treated using free uptake with modified oligonucleotides diluted to concentrations described in the tables below. After approximately 144 hours, cell proliferation was measured using the luminescent cell viability CellTiter-Glo® 2.0 Assay (Promega). Results are presented in the tables below as percent control of the amount of luminescence in samples treated with modified oligonucleotides relative to untreated control cells (% UTC).

Data set [6] deals with Yap1 mRNA. In words: Yap1 mRNA in SCC-25 cells, RNA analysis (Example 42). In kind it is cell-based, human. The following applies: free uptake, approximately 48 hours. How it is done:
Modified oligonucleotides described in the studies above were tested at various doses in tongue squamous cell carcinoma cell line SCC-25. A control oligonucleotide 792169, described herein above, was also tested.
Cultured SCC-25 cells at a density of 5000 cells per well were treated using free uptake with modified oligonucleotides diluted to concentrations described in the tables below. After approximately 48 hours, Yap1 mRNA levels were measured as previously described using the Human Yap1 primer-probe set RTS4814. Yap1 mRNA levels were normalized to actin-beta content, as measured by primer probe set RTS5002. Results are presented in the tables below as percent control of the amount of Yap1 mRNA relative to untreated control cells (% UTC).

Data set [7] has as its system SNU-1076 cells. In words: Cell proliferation assay in SNU-1076 cells, CellTiter-Glo (Example 45). The data set is classed as cell-based, human. The following applies: free uptake, approximately 144 hours. Here is the method:
Modified oligonucleotides described in the studies above were tested at various doses in upper aerodigestive tract/laryngeal squamous cell carcinoma line SNU-1076. A control oligonucleotide 792169, described herein above, was also tested.
Cultured SNU-1076 cells at a density of 1000 cells/well were treated using free uptake with modified oligonucleotides diluted to concentrations described in the tables below. After approximately 144 hours, cell proliferation was measured using the luminescent cell viability CellTiter-Glo® 2.0 Assay (Promega). Results are presented in the tables below as percent control of the amount of luminescence in samples treated with modified oligonucleotides relative to untreated control cells (% UTC).

Data set [8] in a line: Tolerability in CD-1 mice, body and organ weights (Example 19). The following applies: male CD-1 mice, 50 mg/kg s.c. twice a week for four weeks (8 treatments), end of study (day 26). The data set is classed as in vivo. Here is the method: Groups of four male CD-1 mice at 4-6 weeks of age (obtained from Charles River) were injected subcutaneously twice a week for four weeks (for a total of 8 treatments) with 50 mg/kg of modified oligonucleotides. One group of male CD-1 mice was injected with PBS. Mice were euthanized on day 26 post start of treatment (24 hrs following the final administration).
Body weights of CD-1 mice were measured at the end of the study, and the average body weight for each group is presented in the table below. Modified oligonucleotides that caused any changes in organ weights outside the expected range for modified oligonucleotides were excluded from further studies.

Strand notation (5' to 3'): a small letter for the sugar, then the base; units joined by * are phosphorothioate-linked, units joined directly phosphodiester-linked; [ ] holds rarer units or linkages, { } end groups; capitals alone tell only the bases. k = constrained ethyl (cEt); [5mC] = 5-methylcytosine; d = 2'-deoxy (DNA)

Regarding “715487 (kA*kT*kT*dA*d[5mC]*dT*dT*d[5mC]*dA*dT*dA*dG*d[5mC]*kT*kT*kA) [compound 715487]”, the “human Yap1 mRNA expression” value in data set [1] (0.04 μM) is 104 % UTC; in data set [1] (0.2 μM), 83 % UTC; in data set [1] (1 μM), 40 % UTC; in data set [1] (5 μM), 12 % UTC; in data set [4] (0.04 μM), 69 % UTC; in data set [4] (0.2 μM), 33 % UTC. Further, the “human Yap1 mRNA expression” value is 12 % UTC in data set [4] (1 μM); 5 % UTC in data set [4] (5 μM); 70 % UTC in data set [6] (0.08 μM); 32 % UTC in data set [6] (0.4 μM); 16 % UTC in data set [6] (2 μM); 11 % UTC in data set [6] (10 μM). Moreover, the “Antiproliferative effect (cell proliferation, luminescence)” value (“Antiproliferative effect” below) in data set [2] (0.04 μM) turned out to be 70 % UTC; in data set [2] (0.2 μM), 56 % UTC; in data set [2] (1 μM), 28 % UTC; in data set [2] (5 μM) it was 22 % UTC; in data set [3] (0.04 μM), 158 % UTC; in data set [3] (0.2 μM) it was 121 % UTC. The “Antiproliferative effect” value in data set [3] (1 μM) turned out to be 106 % UTC; in data set [3] (5 μM) it was 69 % UTC; in data set [5] (0.04 μM), 87 % UTC; in data set [5] (0.2 μM), 66 % UTC; in data set [5] (1 μM) it was 47 % UTC; in data set [5] (5 μM), 28 % UTC. The “Antiproliferative effect” value in data set [7] (0.04 μM) was 91 % UTC; in data set [7] (0.2 μM) it was 90 % UTC; in data set [7] (1 μM) it was 86 % UTC; in data set [7] (5 μM) it was 79 % UTC.
In data set [8], “1198439 (AGTGTATGTCAGAAGA; sugar, 5-methylcytosine, phosphorothioate modifications, further chemistry not given here) [compound 1198439]” came in with a Kidney weight of 0.51 g, a Liver weight of 2.03 g, a Spleen weight of 0.25 g and a body weight of 36 g.
With “CGCCGATAAGGTACAC (cEt gapmer, phosphorothioate backbone, further chemistry not given here) [ION 792169, reference compound]”, the “human Yap1 mRNA expression” value in data set [1] (0.04 μM) stood at 98 % UTC; in data set [1] (0.2 μM), 112 % UTC; in data set [1] (1 μM), 111 % UTC; in data set [1] (5 μM) it was 106 % UTC; in data set [4] (0.04 μM), 91 % UTC; in data set [4] (0.2 μM), 100 % UTC. Further, the “human Yap1 mRNA expression” value in data set [4] (1 μM) was determined as 102 % UTC; in data set [4] (5 μM), 105 % UTC; in data set [6] (0.08 μM), 87 % UTC; in data set [6] (0.4 μM), 87 % UTC; in data set [6] (2 μM), 89 % UTC; in data set [6] (10 μM), 86 % UTC. Further, the “Antiproliferative effect” value is reported as 97 % UTC in data set [2] (0.04 μM); 95 % UTC in data set [2] (0.2 μM); 82 % UTC in data set [2] (1 μM); 65 % UTC in data set [2] (5 μM); 125 % UTC in data set [3] (0.04 μM); 169 % UTC in data set [3] (0.2 μM). Moreover, the “Antiproliferative effect” value in data set [3] (1 μM) amounted to 142 % UTC; in data set [3] (5 μM) it was 136 % UTC; in data set [5] (0.04 μM) it was 93 % UTC; in data set [5] (0.2 μM), 92 % UTC; in data set [5] (1 μM), 89 % UTC; in data set [5] (5 μM), 71 % UTC. Also, the “Antiproliferative effect” value amounted to 97 % UTC in data set [7] (0.04 μM), 104 % UTC in data set [7] (0.2 μM), 106 % UTC in data set [7] (1 μM) and 108 % UTC in data set [7] (5 μM).
In data set [8], “1198872 (TGTATGTCAGAAGAGT; chemically modified gapmer, further chemistry not given here) [compound 1198872]” showed a Kidney weight of 0.40 g, a Liver weight of 1.84 g, a Spleen weight of 0.16 g and a body weight of 34 g.
